Values of other authors as cited in patent publication US20090291122A1, “Wound Care Treatment Product” (SANO MEDICAL bvba, priority 2006, published 2009).

Test system: E-coli

## O=[O+][O-] [Ozone]
  speed of killing E-coli relative to chlorine: 3125 times faster than chlorine
